Earlier results on one molecule are cited in patent US20090170816A1, “COMBINATION COMPRISING SQUALENE, A PHOSPHOLIPID AND AN OMEGA 3 FATTY ACID FOR THE TREATMENT OF CANCER” (FARMALEIS S.L., priority 2005, published 2009).

The test system of data set [1] is chemically-induced lung tumours. As to conditions: compared to animals not receiving squalene.
Data set [2] concerns Colon cancer. The note with it: Table 1, source Carcinogenesis vol. 19 no. 2 pp. 287-290, 1998.

Turning to `CC(C)=CCC/C(C)=C/CC/C(C)=C/CC/C=C(\C)CC/C=C(\C)CCC=C(C)C` [Squalene], in data set [1], the incidence of tumours entry is “lower incidence of tumours”, the multiplicity of tumours result was “lower multiplicity” and the volume of tumours result is “smaller volume”. Besides, in data set [2], the Survival percentage is 50% ^(1).
